Laboratory results from US20230373937A1, “INHIBITORS OF SPINSTER HOMOLOG 2 (SPNS2) FOR USE IN THERAPY” (University of Virginia Patent Foundation, priority 2020, published 2023).
Structures can show the parent of a compound that is named as a salt.

biological target: T1, SPNS2 (Mus musculus, UniProt Q91VM4); assay: S1P transporter assay: S1P release from whole cells expressing SPNS2; assay type: cell-based; conditions: HeLa or U937 cells expressing mouse SPNS2; 18 hours; S1P in media measured by LC-MS; read-out: IC50 (in vitro inhibition against SPNS2)
T1 construct: expressed in transfected cells; host or cells: HeLa or U937 cells
T1 sequence (Q91VM4 1-549): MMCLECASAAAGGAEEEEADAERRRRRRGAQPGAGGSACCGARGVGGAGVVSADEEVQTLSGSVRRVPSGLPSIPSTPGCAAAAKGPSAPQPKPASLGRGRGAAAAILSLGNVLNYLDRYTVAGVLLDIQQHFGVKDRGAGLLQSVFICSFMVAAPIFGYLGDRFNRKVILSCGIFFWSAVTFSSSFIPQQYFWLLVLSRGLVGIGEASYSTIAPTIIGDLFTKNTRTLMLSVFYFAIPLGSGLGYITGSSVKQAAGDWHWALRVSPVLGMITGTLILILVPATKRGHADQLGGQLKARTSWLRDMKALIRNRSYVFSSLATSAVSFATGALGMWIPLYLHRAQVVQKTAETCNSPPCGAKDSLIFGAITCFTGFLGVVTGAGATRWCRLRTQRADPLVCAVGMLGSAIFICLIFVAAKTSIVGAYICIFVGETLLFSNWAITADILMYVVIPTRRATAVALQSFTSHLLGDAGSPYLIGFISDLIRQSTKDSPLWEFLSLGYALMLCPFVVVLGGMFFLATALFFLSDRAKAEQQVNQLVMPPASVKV
Description: Transporter assays are vectorial and therefore require measurement of the transported analyte in different compartments. The S1P transporter SPNS2 only exports S1P, which obviates measuring uptake of S1P into transporter-expressing cells. Thus, transporter activity was determined by quantifying S1P release from whole cells expressing SPNS2. SPNS2 inhibitor potency was assessed using whole cell assays. HeLa or U937 cells expressing mouse SPNS2 were used to determine inhibitor potency (IC50). Cells were plated onto 12 well plates and assayed when the cell monolayers became confluent. Cell growth media (RPMI-1640 containing 10% fetal bovine serum) was replaced with 2 mL of serum-free media (RPMI-1640) containing fatty acid free bovine serum albumin (BSA) (0.2% w/v) and supplemented with 4-deoxypyridoxine (DOP) (1 mM), NaF (2 mM), Na3VO4 (0.2 mM) to inhibit S1P degradation. Test articles (1×10-9-1×10^-4 M) were assayed in duplicate or triplicate. After 18 hours, media was collected, an internal recovery standard (0.005 mL of 5×10^-7 M deuterated (d7) S1P in methanol) was added, the BSA was precipitated with trichloroacetic acid and the bound S1P extracted with methanol. S1P and S1P-d7 were measured by liquid chromatography mass spectrometry. Inhibitor potency at the human SPNS2 ortholog was determined by an analogous assay using U-937 cells, which endogenously express human SPNS2.

IC50 [nM] | SMILES
> 2000 | CCCCCCCCCCc1ccc(-c2noc(CNC(=O)C3CCNCC3)n2)cc1 [Compound 9p, N-((3-(4-decylphenyl)-1,2,4-oxadiazol-5-yl)methyl)piperidine-4-carboxamide hydrochloride]
> 2000 | CCCCCCCCCCc1ccc(-c2noc([C@@H](N)CCCN)n2)cc1 [Compound 19b, (S)-1-(3-(4-decylphenyl)-1,2,4-oxadiazol-5-yl)butane-1,4-diamine dihydrochloride]
≤ 2000 | CCCCCCCCCCc1ccc(-c2noc([C@@H]3CCN(C(=O)[C@H](C)N)C3)n2)cc1 [Compound 9ak, (S)-2-amino-1-((R)-3-(3-(4-decylphenyl)-1,2,4-oxadiazol-5-yl)pyrrolidin-1-yl)propan-1-one 2,2,2-trifluoroacetate]
≤ 2000 | CCCCCCCCCCc1ccc(-c2noc(CNC(=O)CNC)n2)cc1 [Compound 9l, N-((3-(4-decylphenyl)-1,2,4-oxadiazol-5-yl)methyl)-2-(methylamino)acetamide hydrochloride]
≤ 2000 | CCCCCCCCCCc1ccc(-c2noc([C@@H](N)CCN)n2)cc1 [Compound 19c, (S)-1-(3-(4-decylphenyl)-1,2,4-oxadiazol-5-yl)propane-1,3-diamine dihydrochloride]
≤ 2000 | CCCCCCCCCCc1ccc(-c2noc([C@@H]3CCN(C(=O)[C@@H](N)C(C)C)C3)n2)cc1 [Compound 9ai, (S)-2-amino-1-((R)-3-(3-(4-decylphenyl)-1,2,4-oxadiazol-5-yl)pyrrolidin-1-yl)-3-methylbutan-1-one 2,2,2-trifluoroacetate]
> 2000 | CCCCCCCCCCc1ccc(-c2noc(CNC(=O)CCN)n2)cc1 [Compound 9e, 3-amino-N-((3-(4-decylphenyl)-1,2,4-oxadiazol-5-yl)methyl)propanamide hydrochloride]
≤ 2000 | CCCCCCCCCCc1ccc(-c2noc(CNC(=O)CCCCN)n2)cc1 [Compound 9g, 5-amino-N-((3-(4-decylphenyl)-1,2,4-oxadiazol-5-yl)methyl)pentanamide hydrochloride]
> 2000 | CCCCCCCCNC(=O)c1ccc(-c2noc([C@@H]3CCNC3)n2)cc1 [Compound 13c, (R)—N-octyl-4-(5-(pyrrolidin-3-yl)-1,2,4-oxadiazol-3-yl)benzamide hydrochloride]
> 2000 | CCCCCCCCCCc1ccc(-c2noc(CNC(=O)[C@@H](N)C(C)C)n2)cc1 [Compound 9f, (S)-2-amino-N-((3-(4-decylphenyl)-1,2,4-oxadiazol-5-yl)methyl)-3-methylbutanamide hydrochloride]
> 2000 | CCCCCCCCCCc1ccc(-c2noc(CNC(=O)[C@@H]3C[C@H](O)CN3)n2)cc1 [Compound 9v, (2S,4S)—N-((3-(4-decylphenyl)-1,2,4-oxadiazol-5-yl)methyl)-4-hydroxypyrrolidine-2-carboxamide hydrochloride]
> 2000 | CCCCCCCCCCc1ccc(-c2noc(CNC(=O)CN)n2)cc1 [Compound 9b, 2-amino-N-((3-(4-decylphenyl)-1,2,4-oxadiazol-5-yl)methyl)acetamide hydrochloride]
> 2000 | CCCCNC(=O)c1ccc(-c2noc([C@@H]3CCNC3)n2)cc1 [Compound 13a, (R)—N-butyl-4-(5-(pyrrolidin-3-yl)-1,2,4-oxadiazol-3-yl)benzamide hydrochloride]
≤ 2000 | CCCCCCCCCCc1ccc(-c2noc(CNC(=O)[C@@H]3CC[C@@H](N)C3)n2)cc1 [Compound 9ah, (1R,3R)-3-amino-N-((3-(4-decylphenyl)-1,2,4-oxadiazol-5-yl)methyl)cyclopentane-1-carboxamide hydrochloride]
> 2000 | CCCCCCCCCCc1ccc(-c2noc(C(=O)NCCCN)n2)cc1 [Compound 16b, N-(3-aminopropyl)-3-(4-decylphenyl)-1,2,4-oxadiazole-5-carboxamide hydrochloride]
> 2000 | CCCCCCCCNC(=O)c1ccc(-c2noc(CCCN)n2)cc1 [Compound 13d, 4-(5-(3-aminopropyl)-1,2,4-oxadiazol-3-yl)-N-octylbenzamide hydrochloride]
≤ 2000 | CCCCCCCCCCc1ccc(-c2noc(CNC(=O)[C@@H](N)CCCC(=O)OC)n2)cc1 [Compound 9aa, methyl (S)-5-amino-6-(((3-(4-decylphenyl)-1,2,4-oxadiazol-5-yl)methyl)amino)-6-oxohexanoate hydrochloride]
≤ 2000 | CCCCCCCCCCc1ccc(-c2noc(CNC(=O)[C@@H]3CCNC3)n2)cc1 [Compound 9j, (R)—N-((3-(4-decylphenyl)-1,2,4-oxadiazol-5-yl)methyl)pyrrolidine-3-carboxamide hydrochloride]
> 2000 | CCCCNC(=O)c1ccc(-c2noc(CCCN)n2)cc1 [Compound 13b, 4-(5-(3-aminopropyl)-1,2,4-oxadiazol-3-yl)-N-butylbenzamide hydrochloride]

The remaining lines, values behind:

SMILES | IC50 [nM]
CCCCCCCCCCc1ccc(-c2noc(CC(O)CN3CCCCC3)n2)cc1 (stereo not shown) [Compound 6a, 1-(3-(4-decylphenyl)-1,2,4-oxadiazol-5-yl)-3-(piperidin-1-yl)propan-2-ol hydrochloride] | > 2000
NCCCc1nc(-c2ccc(OCc3ccccc3)cc2)no1 [Compound 5i, 3-(3-(4-(benzyloxy)phenyl)-1,2,4-oxadiazol-5-yl)propan-1-amine hydrochloride] | > 2000
CCCCCCCOc1ccc2cc(-c3noc([C@@H]4CCNC4)n3)ccc2c1 [Compound 5x, (R)-3-(6-(heptyloxy)naphthalen-2-yl)-5-(pyrrolidin-3-yl)-1,2,4-oxadiazole hydrochloride] | > 2000
CCCCCCCCCCc1ccc(-c2noc(CC(CN)OC(C)=O)n2)cc1 (stereo not shown) [Compound 5n, 1-amino-3-(3-(4-decylphenyl)-1,2,4-oxadiazol-5-yl)propan-2-yl acetate hydrochloride] | > 2000
CCCCCCCCCCc1ccc(-c2noc(CN3CCNCC3)n2)cc1 [Compound 5h, 3-(4-decylphenyl)-5-(piperazin-1-ylmethyl)-1,2,4-oxadiazole 2,2,2-trifluoroacetate] | ≤ 2000
CCCCCCCCCCc1ccc(-c2noc(C[C@H](C)N)n2)cc1 [Compound 5c, (S)-1-(3-(4-decylphenyl)-1,2,4-oxadiazol-5-yl)propan-2-amine 2,2,2-trifluoroacetate] | > 2000
CCCCCCCCCCc1ccc(-c2noc([C@H](CCCCN)NC(C)=O)n2)cc1 [Compound 21, (S)—N-(5-amino-1-(3-(4-decylphenyl)-1,2,4-oxadiazol-5-yl)pentyl)acetamide hydrochloride] | > 2000
CCCCCCCCCc1ccc(Cc2noc(CCCN)n2)cc1 [Compound 5r, 3-(3-(4-nonylbenzyl)-1,2,4-oxadiazol-5-yl)propan-1-amine hydrochloride] | > 2000
CCCCCCCCCOc1ccc(-c2noc(CCCN)n2)cc1F [Compound 5v, 3-(3-(3-fluoro-4-(nonyloxy)phenyl)-1,2,4-oxadiazol-5-yl)propan-1-amine hydrochloride] | ≤ 2000
CCCCCCCCCCc1ccc(-c2noc(CCCN3CCCCC3)n2)cc1 [Compound 6e, 3-(4-decylphenyl)-5-(3-(piperidin-1-yl)propyl)-1,2,4-oxadiazole hydrochloride] | > 2000
C/C(=N\OCCCCc1ccccc1)c1ccc(-c2noc(CCCN)n2)cc1 [Compound 28, 1-(4-(5-(3-aminopropyl)-1,2,4-oxadiazol-3-yl)phenyl)ethan-1-one 0-(4-phenylbutyl) oxime hydrochloride] | > 2000
CCCCCCCCCCc1ccc(-c2noc(CC[C@@H](N)C(=O)O)n2)cc1 [Compound 5y, (R)-2-amino-4-(3-(4-decylphenyl)-1,2,4-oxadiazol-5-yl)butanoic acid hydrochloride] | > 2000
CCCCCCCCCOc1ccc(-c2noc(CCCN)n2)cc1C(F)(F)F [Compound 5u, 3-(3-(4-(nonyloxy)-3-(trifluoromethyl)phenyl)-1,2,4-oxadiazol-5-yl)propan-1-amine hydrochloride] | > 2000
CCCCCCCCCCc1ccc(-c2noc([C@@H]3CC[C@H](N)C3)n2)cc1 [Compound 5d, (1S,3R)-3-(3-(4-decylphenyl)-1,2,4-oxadiazol-5-yl)cyclopentan-1-amine hydrochloride] | > 2000
CCCCCCCCCCc1ccc(-c2noc(CCCN)n2)cc1 [Compound 5e, 3-(3-(4-decylphenyl)-1,2,4-oxadiazol-5-yl)propan-1-amine 2,2,2-trifluoroacetate] | ≤ 2000
